Where two headings read alike, the source gives them in different places.
Columns and labels:
HCC1954 cells = test: Antiproliferation assay (Cell-titer Glo, 72 h); assay type: cell-based; details: Homo sapiens
Summary of the method: (§1)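 Cells in RPMI/10% FBS were seeded at 5000 (SK-Br3) or 1000 (HCC-1954) per well and allowed 24 h to settle. Compounds were pin-transferred as 3-fold, 10-point duplicate series from a 10 mM stock and incubated 72 h at 37 °C. Viability was read by CellTiter-Glo luminescence and IC50 obtained by curve fitting.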

SK-Br3 cells = test: Antiproliferation assay (Cell-titer Glo, 72 h); assay type: cell-based; details: Homo sapiens, SK-BR-3
Summary of the method: as §1

Pol II p-CTD (Ser2) [1] = test: Western blot of Pol II p-CTD (Ser2) in SK-Br3 cells; assay type: cell-based, human; details: 2 h
Text: (§2) For Western blot analysis, the following antibodies were used: anti-Pol II CTD (2629S, Cell Signaling Technology, Danvers, MA, USA), anti-Pol II p-CTD (Ser2) (13499S, Cell Signaling Technology), anti-cyclinK (A301-939A-M, Bethyl Laboratories), anti-IRS1 (3407S, Cell Signaling Technology), anti-WNT1 (SC-514531, Santa Cruz Biotechnology, Dallas, TX, USA), anti-β-actin (MAB1501R, Millipore, Burlington, MA, USA), and horseradish peroxidase (HRP)-conjugated secondary antibodies (anti-mouse GTX213112-01; anti-rabbit GTX213110-01) (Genetex, Irvine, CA, USA).
(§3) Cells were lysed with lysis buffer containing 50 mM Tris pH 7.4, 150 mM NaCl, 1 mM EDTA, 1% NP-40, and 0.25% sodium deoxycholate supplemented with protease-inhibitor and phosphatase-inhibitor cocktails. The lysate samples (25 μg/lane) were loaded onto 6–12% sodium dodecyl sulfate polyacrylamide gel and separated by electrophoresis (SDS-PAGE). The proteins were transferred to nitrocellulose membrane (Gelman Sciences, Ann Arbor, MI, USA) by electroblotting. The membranes were blocked with 5% non-fat dry milk (MB Cell, Seoul, Korea), incubated with primary antibodies for overnight at 4 °C. After the washing steps were performed with TBST solution, the membranes were incubated with HRP-conjugated secondary antibodies for 1 h at rt. After the secondary washing steps using TBST solution, protein bands on the membranes were visualized using enhanced chemiluminescence ECL detection reagent (Biorad Laboratories, Hercules, CA, USA).

Pol II p-CTD (Ser2) [2] = test: Western blot of Pol II p-CTD (Ser2) in HCC1954 cells; assay type: cell-based, human; details: 40 and 200 nM (dinaciclib 40 nM), 2 h
Text: as §2, §3

cyclinK [3] = test: Western blot of cyclinK in SK-Br3 cells; assay type: cell-based, human; details: 2 h
Description: (§4) The proteins were transferred to nitrocellulose membrane (Gelman Sciences, Ann Arbor, MI, USA) by electroblotting. The membranes were blocked with 5% non-fat dry milk (MB Cell, Seoul, Korea), incubated with primary antibodies for overnight at 4 °C. After the washing steps were performed with TBST solution, the membranes were incubated with HRP-conjugated secondary antibodies for 1 h at rt. After the secondary washing steps using TBST solution, protein bands on the membranes were visualized using enhanced chemiluminescence ECL detection reagent (Biorad Laboratories, Hercules, CA, USA).

CYP2D6 = CYP2D6 (Homo sapiens, UniProt P10635); test: CYP inhibition; assay type: in vitro ADME
Description: Table 6 In vitro liver metabolic stability and activity against CYPs of potent analogues. | column: CYP % Activity at 10 μM / 2D6

IRS1 = test: Western blot of IRS1 in SK-Br3 cells; assay type: cell-based, human; details: 40 and 200 nM, 24 h
Text: as §2
as §3, with “After the secondary washing steps using TBST solution, protein bands on the membranes were visualized using enhanced chemiluminescence ECL detection reagent (Biorad Laboratories, Hercules, CA, USA).” left out

cyclinK [4] = test: Western blot of cyclinK in HCC1954 cells; assay type: cell-based, human; details: 40 and 200 nM (dinaciclib 40 nM), 2 h
Description: as §4

[5] = In vitro liver microsomal stability; assay type: in vitro ADME; details: liver microsomes, pH 7.4, 30 m at 37 °C with NADPH regeneration system
Description: Each compound (final 1 μM, duplicated) was added to each 0.1 M PBS solution (pH 7.4) containing liver microsome of three different species (human, dog, mouse). After a brief (5 m) incubation at 37 °C, the NADPH regeneration system (Promega Corp., Madison, WI, USA) was added, then the mixture was incubated at 37 °C for 30 m. The reaction was terminated by adding acetonitrile containing an internal standard (chlorpropamide), then the mixture was centrifuged at 15,000 rpm, 4 °C for 5 m. The supernatant solution was injected to LC/MS/MS system (TSQ Vantage Triple-Stage Quadrupole Mass Spectrometer, ThermoFisher Scientific, Waltham, MA, USA). The remaining substrates were analyzed with Xcalibur 4.4 s/w using an MRM (multiple reaction monitoring) quantitation mode.

CYP3A4 = CYP3A4 (Homo sapiens, UniProt P08684); test: CYP inhibition; assay type: in vitro ADME
Description: Table 6 In vitro liver metabolic stability and activity against CYPs of potent analogues. | column: CYP % Activity at 10 μM / 3A4

[6] = 72 h, means and standard deviations from three independent assays, read-out: HCC1954 (GI50/μM)
[7] = 72 h, means and standard deviations from three independent assays, read-out: SK-Br3 (GI50/μM)
[8] = SK-Br3 cells, 40 and 200 nM (dinaciclib 40 nM)

Chain of CYP3A4 (P08684 whole entry): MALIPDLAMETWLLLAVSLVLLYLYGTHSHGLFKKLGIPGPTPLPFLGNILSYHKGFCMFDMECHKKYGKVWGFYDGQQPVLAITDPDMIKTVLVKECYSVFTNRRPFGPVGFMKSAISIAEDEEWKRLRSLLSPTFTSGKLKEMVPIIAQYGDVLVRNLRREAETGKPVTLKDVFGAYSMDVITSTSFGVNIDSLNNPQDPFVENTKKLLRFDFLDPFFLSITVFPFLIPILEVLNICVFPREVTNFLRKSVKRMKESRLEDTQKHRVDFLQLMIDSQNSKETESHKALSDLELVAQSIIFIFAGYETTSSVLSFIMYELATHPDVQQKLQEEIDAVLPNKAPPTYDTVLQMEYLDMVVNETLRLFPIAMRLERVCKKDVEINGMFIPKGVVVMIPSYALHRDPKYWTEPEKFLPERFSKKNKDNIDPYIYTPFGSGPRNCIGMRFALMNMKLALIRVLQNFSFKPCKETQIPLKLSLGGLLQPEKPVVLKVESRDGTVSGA
Chain of CYP2D6 (P10635 whole entry): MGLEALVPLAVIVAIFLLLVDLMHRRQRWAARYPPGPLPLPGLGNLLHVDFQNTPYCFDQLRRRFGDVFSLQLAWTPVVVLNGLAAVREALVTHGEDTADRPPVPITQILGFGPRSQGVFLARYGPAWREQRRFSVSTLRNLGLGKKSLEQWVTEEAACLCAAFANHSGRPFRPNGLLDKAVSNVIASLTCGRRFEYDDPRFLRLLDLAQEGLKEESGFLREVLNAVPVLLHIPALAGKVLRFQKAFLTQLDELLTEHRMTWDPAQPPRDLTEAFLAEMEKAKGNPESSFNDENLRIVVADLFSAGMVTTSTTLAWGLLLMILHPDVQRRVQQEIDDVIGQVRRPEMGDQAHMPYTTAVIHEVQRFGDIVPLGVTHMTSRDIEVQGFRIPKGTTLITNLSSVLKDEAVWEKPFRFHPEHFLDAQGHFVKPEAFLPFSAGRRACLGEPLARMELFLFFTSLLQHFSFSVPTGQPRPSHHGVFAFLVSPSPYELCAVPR

Compound | GI50 (HCC1954 cells; [6]) [µM] | GI50 (HCC1954 cells; read-out: HCC1954 GI50) [µM] | GI50 (SK-Br3 cells; [7]) [µM] | GI50 (SK-Br3 cells; read-out: SK-Br3 GI50) [µM] | PolII p-CTD (Ser2) level (Western blot) (Pol II p-CTD (Ser2) [1]; [8]) | PolII p-CTD (Ser2) level (Western blot) (Pol II p-CTD (Ser2) [2]) | cyclinK level (Western blot) (cyclinK [3]; [8]) | CYP % Activity at 10 μM 2D6 (CYP2D6) [%] | IRS1 expression level (Western blot) (IRS1) | cyclinK level (Western blot) (cyclinK [4]) | remaining at 30 min, 1 μM ([5]; dog) [%] | remaining at 30 min, 1 μM ([5]; human) [%] | remaining at 30 min, 1 μM ([5]; mouse) [%] | CYP % Activity at 10 μM 3A4 (CYP3A4) [%] | PolII p-CTD (Ser2) level (Western blot) (Pol II p-CTD (Ser2) [1]; SK-Br3 cells, 0.2, 1 μM) | cyclinK level (Western blot) (cyclinK [3]; SK-Br3 cells, 0.2, 1 μM)
CCn1cnc2c(NCc3ccc(-c4ccccn4)nc3)nc(-c3ccc(N)nc3)nc21 [Compound 30d, N-([2,2′-Bipyridin]-5-ylmethyl)-2-(6-aminopyridin-3-yl)-9-ethyl-9H-purin-6-amine] | 0.036 ± 0.005 | 0.034 to 0.036 | 0.046 ± 0.007 | 0.046 to 0.052 | strong, dose-dependent suppression | strong, dose-dependent suppression | greatly downregulated in a dose-dependent manner | 81.0 | strong suppression of IRS1 and WNT1 | greatly downregulated in a dose-dependent manner | 46.2 | 64.8 | 49.9 | 43.0 |  | 
CCn1cnc2c(NCc3ccc(-c4ccccn4)nc3)nc(-c3cnc(N)nc3)nc21 [Compound 30e, N-([2,2′-Bipyridin]-5-ylmethyl)-2-(2-aminopyrimidin-5-yl)-9-ethyl-9H-purin-6-amine] | 0.034 ± 0.002 | 0.034 to 0.036 | 0.052 ± 0.003 | 0.046 to 0.052 | strong, dose-dependent suppression | strong, dose-dependent suppression | greatly downregulated in a dose-dependent manner | 92.1 | strong suppression of IRS1 and WNT1 | greatly downregulated in a dose-dependent manner | 67.6 | 100 | 85 | 92.8 |  | 
CCc1cnn2c(NCc3ccc[n+]([O-])c3)cc(N3CCCC[C@H]3CCO)nc12 [Dinaciclib] | 0.012 ± 0.001 |  | 0.012 ± 0.001 |  | more potent inhibition of PolII CTD phosphorylation | more potent inhibition of PolII CTD phosphorylation | only a marginal downregulation of cyclinK |  |  | only a marginal downregulation of cyclinK |  |  |  |  | strongly suppressed PolII p-CTD | marginal activity in downrgulating cyclinK

— publication PMC9506414, “Novel 2,6,9-Trisubstituted Purines as Potent CDK Inhibitors Alleviating Trastuzumab-Resistance of HER2-Positive Breast Cancers” (Pharmaceuticals, 2022)
